According to publication PMC4618944, “Congo Red Interactions with Curli-Producing E. coli and Native Curli Amyloid Fibers” (PLoS ONE, 2015):

Biological target: T1, curli (CsgA amyloid fibers) (Escherichia coli, UniProt P28307)
T1 construct: native curli fibers isolated from MC4100, mature CsgA polymer (sec signal removed; native fibers may contain minor nucleator CsgB); immobilized by amine coupling for SPR
Test: surface plasmon resonance (Biacore […]), curli immobilized on CM5 chip
Format: binding

T1 sequence (P28307 21-151): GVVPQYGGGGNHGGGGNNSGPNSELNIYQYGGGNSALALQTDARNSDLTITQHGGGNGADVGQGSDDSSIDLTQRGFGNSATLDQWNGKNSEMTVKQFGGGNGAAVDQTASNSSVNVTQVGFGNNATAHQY

Nc1c(/N=N/c2ccc(-c3ccc(/N=N/c4cc(S(=O)(=O)O)c5ccccc5c4N)cc3)cc2)cc(S(=O)(=O)O)c2ccccc12 [CR, Congo red]
Kd: 2800 nM
